According to ChEMBL document CHEMBL1201862, “PubChem BioAssay data set” (2004):
Calls of active or inactive are those of the source.

Tests used:
[1] = molecular target: Induced myeloid leukemia cell differentiation protein Mcl-1 (Homo sapiens, UniProt Q07820); assay type: functional
[2] = molecular target: DNA dC->dU-editing enzyme APOBEC-3A (Homo sapiens, UniProt P31941); test: Dose Response confirmation of small molecule APOBEC3A DNA Deaminase Inhibitors via a fluorescence-based single-stranded DNA deaminase assay. [Related pubchem assays (depositor defined):AID493011, AID493024]; assay type: functional
[3] = molecular target: DNA dC->dU-editing enzyme APOBEC-3G (Homo sapiens, UniProt Q9HC16); assay type: functional;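 further: Dose-response counterscreen measuring inhibition of APOBEC3G DNA deaminase activity, run while confirming APOBEC3A inhibitors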
[4] = HEp-2 cell cytotoxicity, dose response, cytotoxicity control for RSV inhibitor project, HTS (AID 2410); assay type: functional; conditions: human respiratory syncytial virus
[5] = inhibitors of HIV Env-driven cell fusion, dose response, cherry-pick (AID 652057); assay type: functional, cell-based
[6] = ZM109 Env clade C HIV-1 fusion inhibitors, dose response, HeLa effector, CEM target cells, luciferase, cherry-pick (AID 652058); assay type: functional, cell-based
[7] = off-target signal loss in HeLa-CEM21 co-culture – HeLa F-luc CTL cells, cherry-picked, counter-screen for HIV-1 Env fusion inhibitor project, dose response (AID 652040); assay type: functional, cell-based;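 further: potency for signal decrease marking cytotoxic or nonspecific inhibition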
[8] = inhibitors of clade B AD8 Env fusion, dose response, cell-based, cherry-pick (AID 652062); assay type: functional;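 further: luciferase signal from cell-cell fusion driven by HIV-1 clade B AD8 Env; potency is for inhibitors of fusion seen as a drop in luminescence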
[9] = molecular target: Eukaryotic translation initiation factor 4E (Mus musculus, UniProt P63073); test: eIF4E–eIF4G protein interaction inhibitors, dose response, biochemical, TR-FRET (AID 855); assay type: functional;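 further: potency for disrupting eIF4E binding to eIF4GI seen as loss of FRET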
Estrogen receptor = molecular target: T1, Estrogen receptor (Homo sapiens, UniProt P03372);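 further: potency for inhibiting coactivator peptide recruitment to the receptor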
T1 sequence (P03372 whole entry): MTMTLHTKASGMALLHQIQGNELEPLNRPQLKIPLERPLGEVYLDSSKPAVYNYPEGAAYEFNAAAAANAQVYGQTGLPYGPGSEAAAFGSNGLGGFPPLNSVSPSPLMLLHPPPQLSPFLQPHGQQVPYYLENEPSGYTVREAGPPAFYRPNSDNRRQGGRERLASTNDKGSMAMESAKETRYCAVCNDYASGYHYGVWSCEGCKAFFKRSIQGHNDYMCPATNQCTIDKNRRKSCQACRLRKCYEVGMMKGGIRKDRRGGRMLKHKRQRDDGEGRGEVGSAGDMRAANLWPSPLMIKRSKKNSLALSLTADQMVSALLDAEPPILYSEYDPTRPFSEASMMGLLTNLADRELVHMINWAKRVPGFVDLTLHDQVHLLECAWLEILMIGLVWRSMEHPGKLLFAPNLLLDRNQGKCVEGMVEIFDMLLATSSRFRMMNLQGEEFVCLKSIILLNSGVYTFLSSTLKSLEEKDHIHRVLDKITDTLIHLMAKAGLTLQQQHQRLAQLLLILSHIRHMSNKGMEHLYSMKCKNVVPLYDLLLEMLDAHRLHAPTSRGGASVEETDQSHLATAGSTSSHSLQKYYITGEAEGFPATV

[10] = molecular target: T2, COUP transcription factor 2 (Homo sapiens, UniProt P24468); test: Luminescence-based cell-based high throughput dose response assay to identify inhibitors of COUP-TFII (NR2F2).; assay type: functional;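 further: HEK293 cells transiently cotransfected with COUP-TFII expression vector and reporter; luciferase reporter luminescence driven by COUP-TFII from the pX2-168 reporter plasmid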
T2 sequence (P24468 whole entry): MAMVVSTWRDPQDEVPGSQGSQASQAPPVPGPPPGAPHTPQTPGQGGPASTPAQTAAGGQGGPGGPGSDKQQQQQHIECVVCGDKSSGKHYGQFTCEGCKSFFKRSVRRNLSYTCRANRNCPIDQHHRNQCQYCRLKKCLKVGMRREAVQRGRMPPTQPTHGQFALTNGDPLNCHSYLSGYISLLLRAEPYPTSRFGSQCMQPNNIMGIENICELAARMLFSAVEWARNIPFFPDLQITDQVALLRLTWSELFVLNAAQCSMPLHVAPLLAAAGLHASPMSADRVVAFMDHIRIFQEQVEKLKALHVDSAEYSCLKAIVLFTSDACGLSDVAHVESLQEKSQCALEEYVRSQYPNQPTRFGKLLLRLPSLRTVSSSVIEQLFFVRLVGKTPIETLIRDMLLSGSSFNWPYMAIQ

[11] = molecular target: T3, Mannose-6-phosphate isomerase (Homo sapiens, UniProt P34949); test: human PMI inhibitors, high substrate, primary screen, biochemical, fluorescence intensity, high mannose 6-phosphate (AID 1220)
T3 sequence (P34949 whole entry): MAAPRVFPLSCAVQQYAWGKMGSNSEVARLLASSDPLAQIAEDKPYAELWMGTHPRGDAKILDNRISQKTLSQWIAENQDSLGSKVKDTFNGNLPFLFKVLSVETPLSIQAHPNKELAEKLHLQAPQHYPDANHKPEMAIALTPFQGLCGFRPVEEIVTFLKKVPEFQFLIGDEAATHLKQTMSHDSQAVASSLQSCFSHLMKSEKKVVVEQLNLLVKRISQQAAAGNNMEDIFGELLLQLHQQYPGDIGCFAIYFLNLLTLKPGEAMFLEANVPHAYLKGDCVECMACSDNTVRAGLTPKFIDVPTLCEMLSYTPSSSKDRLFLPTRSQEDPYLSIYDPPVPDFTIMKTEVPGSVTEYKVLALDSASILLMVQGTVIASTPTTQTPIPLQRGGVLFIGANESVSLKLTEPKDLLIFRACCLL

[12] = inhibitors of intracellular T. cruzi replication, confirmation, NIH3T3 host cells, beta-gal luminescence (AID 2044); assay type: functional, cell-based;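 further: intracellular parasites grown in NIH/3T3 mouse fibroblasts as host cells; luminescent beta-galactosidase reporter signal from transgenic T. cruzi replicating inside host cells; inhibitors lower the luminescence signal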
[13] = cytotoxicity toward NIH3T3 fibroblasts, dose response, counter-screen, cell-based, ATP luminescence, mouse fibroblasts (AID 2010); assay type: functional;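 further: cells exposed to compound for about 90 hours before reading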
Nonstructural protein 1 = Nonstructural protein 1 (Influenza A virus, UniProt Q194T2); assay type: functional, Influenza A virus (A/California/07/2009(H1N1))
Prothrombin = Prothrombin (Homo sapiens, UniProt P00734); test: Thrombin 1536 HTS Dose Response Confirmation. [Related pubchem assays: 1046 (Thrombin 1536 HTS; hits were confirmed in this assay)]; assay type: functional
[14] = P. falciparum late gametocyte killing, dose response, luminescence (AID 1117278); assay type: functional, cell-based;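 further: gametocytes exposed to compound for 24 hours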
[15] = Jurkat T cell cytotoxicity, dose response, cytotoxicity control for P. falciparum gametocyte viability project, luminescence (AID 1117277); assay type: functional, cell-based;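 further: potency reflects loss of cellular ATP meaning fewer viable cells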
[16] = cytotoxicity in HEK-293T cells, dose response, cytotoxicity control for BCR NF-kB inhibitor project, luminescence, B-cell screen hits (AID 489021); assay type: functional, cell-based;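 further: HEK-293T cells carrying an NF-kB luciferase reporter; cells exposed to compound for about 14 hours before viability readout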
[17] = Shn3 3'UTR reporter inhibitors, dose response, cell-based, Clone20 osteoblasts, firefly luciferase, cherry-picked (AID 624132); assay type: functional;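 further: firefly luciferase luminescence from reporter carrying the Shn3 3'UTR in osteoblasts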
[18] = HepG2 cell cytotoxicity, dose response, cytotoxicity control for Shn3 inhibitor project, CellTiter-Glo, cherry-picked (AID 624134); assay type: functional, cell-based
[19] = molecular target: T4, Carboxy-terminal domain RNA polymerase II polypeptide A small phosphatase 1 (Homo sapiens, UniProt Q9GZU7); test: inhibitors of CTDSP1, concentration-response testing, biochemical assay, absorbance-based, actives from ultra-high-throughput screening (AID 540297); assay type: functional
T4 sequence (Q9GZU7 whole entry): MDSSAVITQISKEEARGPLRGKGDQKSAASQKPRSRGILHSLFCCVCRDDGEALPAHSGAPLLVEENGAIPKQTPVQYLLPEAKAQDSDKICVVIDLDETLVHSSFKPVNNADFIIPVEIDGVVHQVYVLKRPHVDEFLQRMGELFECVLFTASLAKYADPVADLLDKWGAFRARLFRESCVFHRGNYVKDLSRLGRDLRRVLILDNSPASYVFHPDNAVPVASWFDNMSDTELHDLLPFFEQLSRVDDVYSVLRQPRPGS

Paired box protein Pax-8 = Paired box protein Pax-8 (Homo sapiens, UniProt Q06710); test: inhibitors of PAX8-driven TPO luciferase reporter, dose response, RMG-I cells, cherry-pick (AID 687027); assay type: functional, cell-based;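 further: luciferase reporter driven by Pax8 target thyroperoxidase promoter measured by SteadyGlo luminescence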
[20] = IGROV1 ovarian cancer cell cytotoxicity, dose response, PAX8 inhibitor project, plate reader, dry powder samples (AID 743043); assay type: functional, cell-based; conditions: IGROV-1
[21] = cytotoxicity in OVCAR8 ovarian cancer cells, dose response, PAX8 project, cell-based, plate reader, dry powder samples (AID 743197); assay type: functional; conditions: OVCAR-8
[22] = NIH:OVCAR-3 ovarian cancer cell cytotoxicity, dose response, PAX8 inhibitor project, plate reader, dry powder samples (AID 743044); assay type: functional, cell-based

Chain of Induced myeloid leukemia cell differentiation protein Mcl-1 (Q07820 whole entry): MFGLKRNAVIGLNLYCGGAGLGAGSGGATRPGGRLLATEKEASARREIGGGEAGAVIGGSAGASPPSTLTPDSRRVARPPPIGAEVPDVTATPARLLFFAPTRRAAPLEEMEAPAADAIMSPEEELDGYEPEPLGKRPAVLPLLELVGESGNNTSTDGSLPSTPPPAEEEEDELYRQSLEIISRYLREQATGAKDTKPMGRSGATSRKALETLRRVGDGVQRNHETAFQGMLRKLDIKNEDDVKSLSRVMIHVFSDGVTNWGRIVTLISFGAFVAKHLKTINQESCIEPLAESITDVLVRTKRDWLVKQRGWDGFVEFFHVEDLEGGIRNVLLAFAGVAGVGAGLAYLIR
Chain of Paired box protein Pax-8 (Q06710 whole entry): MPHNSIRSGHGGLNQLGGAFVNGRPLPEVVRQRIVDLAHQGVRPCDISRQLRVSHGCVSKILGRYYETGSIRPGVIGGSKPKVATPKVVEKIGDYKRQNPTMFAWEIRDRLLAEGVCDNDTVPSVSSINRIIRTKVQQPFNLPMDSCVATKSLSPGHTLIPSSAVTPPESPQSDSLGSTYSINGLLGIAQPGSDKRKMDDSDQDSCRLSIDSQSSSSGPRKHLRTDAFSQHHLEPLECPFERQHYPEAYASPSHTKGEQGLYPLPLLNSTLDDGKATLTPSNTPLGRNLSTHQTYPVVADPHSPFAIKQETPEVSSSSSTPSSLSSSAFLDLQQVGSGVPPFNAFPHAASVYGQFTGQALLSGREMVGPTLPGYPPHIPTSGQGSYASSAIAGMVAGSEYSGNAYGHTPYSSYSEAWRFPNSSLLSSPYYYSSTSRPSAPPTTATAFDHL
Chain of Nonstructural protein 1 (Q194T2 whole entry): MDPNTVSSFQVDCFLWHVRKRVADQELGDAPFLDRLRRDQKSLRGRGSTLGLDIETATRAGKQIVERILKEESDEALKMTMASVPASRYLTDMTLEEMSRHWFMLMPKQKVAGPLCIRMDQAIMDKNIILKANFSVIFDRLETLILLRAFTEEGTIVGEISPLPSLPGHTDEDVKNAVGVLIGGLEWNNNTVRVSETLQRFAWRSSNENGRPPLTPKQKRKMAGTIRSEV
Chain of DNA dC->dU-editing enzyme APOBEC-3G (Q9HC16 whole entry): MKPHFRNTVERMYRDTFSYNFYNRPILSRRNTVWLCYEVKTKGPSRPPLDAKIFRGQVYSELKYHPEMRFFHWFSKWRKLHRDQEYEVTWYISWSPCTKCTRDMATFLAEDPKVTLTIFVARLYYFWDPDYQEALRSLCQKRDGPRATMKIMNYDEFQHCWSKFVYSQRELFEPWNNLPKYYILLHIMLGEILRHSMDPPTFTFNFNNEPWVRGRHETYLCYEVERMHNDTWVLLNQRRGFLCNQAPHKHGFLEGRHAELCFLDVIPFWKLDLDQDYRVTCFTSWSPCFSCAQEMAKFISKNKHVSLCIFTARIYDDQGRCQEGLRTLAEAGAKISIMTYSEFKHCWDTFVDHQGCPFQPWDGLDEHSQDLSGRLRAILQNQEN
Chain of DNA dC->dU-editing enzyme APOBEC-3A (P31941 whole entry): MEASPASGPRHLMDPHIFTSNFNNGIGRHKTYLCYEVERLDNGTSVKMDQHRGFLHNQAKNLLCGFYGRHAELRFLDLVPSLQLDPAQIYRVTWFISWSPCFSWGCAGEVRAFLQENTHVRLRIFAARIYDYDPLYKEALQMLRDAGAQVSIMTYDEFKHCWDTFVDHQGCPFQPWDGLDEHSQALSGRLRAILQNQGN
Chain of Eukaryotic translation initiation factor 4E (P63073 whole entry): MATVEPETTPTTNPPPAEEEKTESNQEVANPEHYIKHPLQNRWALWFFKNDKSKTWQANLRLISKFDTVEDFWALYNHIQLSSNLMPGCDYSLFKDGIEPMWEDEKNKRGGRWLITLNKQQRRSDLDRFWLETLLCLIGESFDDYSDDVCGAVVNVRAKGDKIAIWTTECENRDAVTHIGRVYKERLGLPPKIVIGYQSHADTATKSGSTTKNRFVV

CCOC(=O)C1=C(Nc2ccc(OC)cc2)S/C(=C\c2cc(OC)c(O)c(OC)c2)C1=O
IC50 [1]: 4.24 µM (not active)

COc1cc(/C=C(/C#N)C(=O)NCCCc2ccccc2)ccc1OCC(=O)O
IC50 [2]: 1.61 µM (active) | IC50 [3]: 3.23 µM (active)

O=C(CCC(=O)N1CCN(S(=O)(=O)c2ccc3ccccc3c2)CC1)Nc1cc(Cl)cc(Cl)c1
CC50 [4]: > 6.25 µM (active) | AC50 [5]: 3.61 µM (active) | AC50 [6]: 4.28 µM (active) | AC50 [7]: 6.16 µM (active) | AC50 [8]: 14.2 µM (active)

Cc1ccc(CNC(=O)c2ccc(-n3cccc3)cc2)cc1
IC50 [1]: 3.27 µM (active) | IC50 [9]: 50 µM (inactive)

CC(=O)NCCOC(=O)Nc1ccncc1
IC50 (Estrogen receptor): > 50 µM (not active)

Cc1ccc(-n2nc3c(=O)n(C(C)C(=O)NCCC4=CCCCC4)nc(C)c3c2C)cc1 (stereo unspecified)
IC50 [10]: 6.62 µM (active)

CCC(C)N1C(=O)NC(=O)C2(Cc3c(ccc4ccccc34)N(C)C2)C1=O (stereo unspecified)
IC50 [11]: > 50 µM (not active)

N#C/C(=C\C1=C(N2CCOCC2)C(=C\c2ccccc2)/CC1)C(=O)Nc1ccccc1F
EC50 [12]: 1.01 µM (active) | EC50 [13]: > 60 µM (not active) | IC50 (Nonstructural protein 1): 13.3 µM (active)

CS(=O)(=O)Nc1cccc(C(=O)CC2(O)C(=O)Nc3ccc(Br)cc32)c1 (stereo unspecified)
IC50 (Prothrombin): 0.525 µM (active)

S=C(Nc1ccc2c[nH]nc2c1)Nc1ccc(Cl)cc1Cl
IC50 [11]: > 50 µM (not active)

Cc1ccc(C(=O)NC(C)C(c2cccs2)N2CCCC2)s1 (stereo unspecified)
IC50 (Prothrombin): > 50 µM (not active) | IC50 [14]: > 109 µM (inactive) | IC50 [15]: > 83.3 µM (inactive)

COc1ccc(OC)c(NS(=O)(=O)c2ccc(NC(C)=O)cc2)c1
IC50 [14]: > 109 µM (inactive) | IC50 [15]: > 83.3 µM (inactive)

CCN1C(NCC2CC2)=N[C@@H](c2cccc(C(F)(F)F)c2)C(C(=O)OC)=C1C
IC50 [2]: 4.22 µM (active) | IC50 [3]: 6.71 µM (active)

Cc1ccc(Cl)cc1NS(=O)(=O)c1c(C)[nH]c(=O)[nH]c1=O
IC50 (Prothrombin): > 50 µM (not active)

NC(=O)c1c(NC(=O)Cn2nc(C(=O)O)c3ccccc3c2=O)sc2c1CCCC2
IC50 (Prothrombin): 24.3 µM (active)

CCc1ccc2[nH]c(=O)c(CN(Cc3ccc4c(c3)OCO4)C(=O)c3ccco3)cc2c1
IC50 (Estrogen receptor): 26.2 µM (active)

Cc1ccc(Nc2nnc(SCC(=O)NCc3ccco3)s2)cc1
IC50 (Estrogen receptor): 28.8 µM (active)

COCC(=O)n1nc(-c2ccccc2)nc1NCc1cccs1
IC50 (Prothrombin): 0.467 µM (active)

Cc1onc(-c2ccccc2Cl)c1C(=O)NCCN1CCOCC1
IC50 [14]: > 109 µM (inactive) | IC50 [15]: > 83.4 µM (inactive)

COc1ccccc1NC(=O)CSc1nnc(-c2ccc(NC(C)=O)cc2)n1C
IC50 [14]: > 109 µM (inactive) | IC50 [15]: > 83.3 µM (inactive)

COC(=O)C1=C(c2ccc(-c3ccccc3)c(F)c2)C[C@@H]2CC[C@H]1N2C(=O)N1CCCC1
IC50 [16]: > 80 µM (inactive) | AC50 [17]: 6.06 µM (active) | AC50 [18]: 6.77 µM (active) | IC50 [10]: 8.17 µM (active)

CC(Cc1ccccn1)NC(=O)CCc1nnc(C2CCCCC2)o1 (stereo unspecified)
IC50 [14]: > 109 µM (inactive) | IC50 [15]: > 83.3 µM (inactive)

COc1ccccc1/C=c1\sc2nc(-c3ccco3)nn2c1=O
IC50 (Estrogen receptor): 17.5 µM (active) | IC50 [1]: 7.38 µM (active) | IC50 [19]: 5 µM (active)

C[C@@H]1CCCCO[C@@H](CN(C)Cc2ccc(Cl)c(Cl)c2)[C@H](C)CN([C@H](C)CO)C(=O)c2cc(NS(=O)(=O)c3ccc(Cl)cc3)ccc2O1
AC50 (Paired box protein Pax-8): 8.68 µM (active) | AC50 [20]: 59.2 µM (active) | AC50 [21]: > 70 µM (inactive)

O=C(c1ccccc1F)N1CC(=O)N2[C@@H](CO)[C@@H](c3ccc(C#Cc4ccc(F)cc4)cc3)[C@@H]2C1
AC50 (Paired box protein Pax-8): 5.77 µM (active) | AC50 [22]: 8.76 µM (active) | AC50 [20]: 19.2 µM (active) | AC50 [21]: 41.1 µM (active)

C[C@@H]1CCCCO[C@@H](CN(C)Cc2ccc(C(F)(F)F)cc2)[C@H](C)CN([C@@H](C)CO)C(=O)c2cc(NC(=O)NC3CCCCC3)ccc2O1
AC50 (Paired box protein Pax-8): 8.39 µM (active) | AC50 [22]: 45.2 µM (active) | AC50 [20]: 50.9 µM (active) | AC50 [21]: 37.5 µM (active)

OCC(CO)(CO)/N=C/c1c(O)ccc2ccccc12
IC50 [11]: 38.6 µM (active)

COc1ccc(N2CC(C(=O)N/N=C/c3cc([N+](=O)[O-])ccc3O)CC2=O)cc1 (stereo unspecified)
IC50 (Nonstructural protein 1): 17.8 µM (active)
